Assay results taken from a melting point compilation (Tetko et al.).

Conditions: a range is the spread between reports

Question: For Clc1c(Cl)c(Cl)c(Cl)c(Cl)c1Cl, which melting point is on record?
Answer: 228 to 232 °C

Question: Which melting point does the source give for COc1ccc2c(c1)c(CC(=O)O)c(C)n2C(=O)c1ccc(Cl)cc1 here?
Answer: 158 to 160 °C

Question: With O=Cc1ccccc1Br as the compound, how does the melting point read?
Answer: 20 to 22 °C

Question: With COP(=S)(OC)SCn1nnc2ccccc2c1=O as the compound, how does the melting point read?
Answer: 72 to 73 °C

Question: Which melting point does the source give for O=CO here?
Answer: 8 to 8.32 °C

Question: Which melting point does the source give for O=[N+]([O-])C(Br)(CO)CO here?
Answer: 127 to 132 °C

Question: Which melting point does the source give for C1CC[C@H]2CCCC[C@H]2C1 here?
Answer: -43 to -42.9 °C

Question: Which melting point does the source give for CCOC(=O)CCCCC(=O)OCC here?
Answer: -20 to -18 °C

Question: Which melting point does the source give for c1ccc2cnccc2c1 here?
Answer: 26 to 26.5 °C

Question: For O=C1c2ccccc2C(=O)c2cc(Cl)ccc21, which melting point is on record?
Answer: 209 to 211 °C

Question: For CCCOC(C)=O, which melting point is on record?
Answer: -95 to -92 °C

Question: For O=[N+]([O-])c1cccc(Cl)c1Cl, which melting point is on record?
Answer: 61.5 to 62 °C

Question: Which melting point does the source give for Clc1cc(Cl)c(-c2ccccc2)cc1Cl here?
Answer: 76 to 78 °C

Question: Which melting point does the source give for NCC1CCNCC1 here?
Answer: 24 to 25 °C

Question: With c1ccc2nc(-c3ccc4ccccc4n3)ccc2c1 as the compound, how does the melting point read?
Answer: 194 to 195 °C

Question: For c1ccc(-c2ncc[nH]2)cc1, which melting point is on record?
Answer: 148 to 149 °C

Question: For CC(=O)c1cccs1, which melting point is on record?
Answer: 10 to 10.5 °C

Question: Which melting point does the source give for CC(=O)O[Si](C)(OC(C)=O)OC(C)=O here?
Answer: 40.5 to 43 °C

Question: With COC(=O)CCCCCCCCCCC(=O)OC as the compound, how does the melting point read?
Answer: 30 to 31.9 °C

Question: Which melting point does the source give for c1ccc(-c2cc3ccccc3[nH]2)cc1 here?
Answer: 190 °C

Question: Which melting point does the source give for CN1C(=C(O)Nc2ccccn2)C(=O)c2ccccc2S1(=O)=O here?
Answer: 198 to 199 °C

Question: With c1ccoc1 as the compound, how does the melting point read?
Answer: -85.6 to -85 °C

Question: With NCC(O)c1ccccc1 (centres undefined) as the compound, how does the melting point read?
Answer: 56.5 to 57 °C

Question: With CC(C)(O)CCC(C)(C)O as the compound, how does the melting point read?
Answer: 89 to 92 °C

Question: For c1ccc(CNc2ncnc3nc[nH]c23)cc1, which melting point is on record?
Answer: 231 °C

Question: With C=CCCC=C as the compound, how does the melting point read?
Answer: -141 °C

Question: For OC(c1ccccc1)c1ccc(Cl)cc1 (centres undefined), which melting point is on record?
Answer: 60 to 60.8 °C

Question: For O=C=Nc1ccc(N=C=O)cc1, which melting point is on record?
Answer: 94 to 97.5 °C

Question: With O=c1c(-c2ccccc2)c1-c1ccccc1 as the compound, how does the melting point read?
Answer: 119 to 120 °C

Question: Which melting point does the source give for C=CCC(C(=O)O)C(=O)O here?
Answer: 104 to 105 °C

Question: With O=C(O)c1cccc(Cl)c1Cl as the compound, how does the melting point read?
Answer: 168 to 169 °C

Question: For O=C(O)c1ccccc1I, which melting point is on record?
Answer: 162 to 163 °C

Question: Which melting point does the source give for COC(=O)c1ccccc1 here?
Answer: -15 to -12 °C

Question: Which melting point does the source give for Cc1ccc(N)cc1 here?
Answer: 43 to 44 °C

Question: With CC(C)(C)c1cc(C(=O)O)cc(C(C)(C)C)c1O as the compound, how does the melting point read?
Answer: 208 °C

Question: With CC=C(C)C as the compound, how does the melting point read?
Answer: -134 °C

Question: For CC(C)C(O)C(C)(C)CO (centres undefined), which melting point is on record?
Answer: 51.5 to 52 °C

Question: For CC(C)(C)C1CCCCC1, which melting point is on record?
Answer: -41.2 to -41 °C

Question: With CCCc1ccc(C(=O)O)cc1 as the compound, how does the melting point read?
Answer: 142 to 143 °C

Question: With CNc1ccccc1[N+](=O)[O-] as the compound, how does the melting point read?
Answer: 35 to 38 °C

Question: Which melting point does the source give for Cn1c2ccccc2c2ccccc21 here?
Answer: 89.3 to 91 °C

Question: For CCCCCCCCCCCCCCCCCCCCCCCCCCCC, which melting point is on record?
Answer: 62 to 64.5 °C

Question: With Nc1ccc(S(=O)(=O)c2ccc(N)cc2)cc1 as the compound, how does the melting point read?
Answer: 176 to 177 °C

Question: With COc1cccc([N+](=O)[O-])c1C as the compound, how does the melting point read?
Answer: 53 to 55 °C

Question: Which melting point does the source give for CS(=O)(=O)c1ccc(C(=O)O)cc1 here?
Answer: 270 to 273 °C

Question: Which melting point does the source give for O=C(O)c1ccsc1 here?
Answer: 138 to 139 °C

Question: For O=C(C[N+](=O)[O-])Nc1ccccc1, which melting point is on record?
Answer: 93 to 94 °C

Question: With NCCN as the compound, how does the melting point read?
Answer: 8.5 to 11.1 °C

Question: Which melting point does the source give for COc1ccc(C(N)=O)cc1 here?
Answer: 165 to 166 °C

Question: Which melting point does the source give for CCCCCCCCCCCC(=O)CCCCCCCCCCC here?
Answer: 67 to 70.2 °C

Question: With CC1(C)C(=O)NC(=O)N1CO as the compound, how does the melting point read?
Answer: 100 to 105 °C

Question: For CCCCCCCCCCCCCCCCCCCCCCCCCCCCCC, which melting point is on record?
Answer: 65.8 to 67 °C

Question: For O=Cc1ccc([N+](=O)[O-])cc1, which melting point is on record?
Answer: 105 to 108 °C

Question: For C=CCCCCC, which melting point is on record?
Answer: -120 to -119 °C

Question: With CCCCS(=O)CCCC as the compound, how does the melting point read?
Answer: 32.6 to 33 °C

Question: For COC(=O)c1cc(OC)cc(OC)c1, which melting point is on record?
Answer: 42 to 43 °C

Question: Which melting point does the source give for NC1CCCC1 here?
Answer: -85.7 to -82.7 °C

Question: With Cc1ccc(Cl)cc1[N+](=O)[O-] as the compound, how does the melting point read?
Answer: 36 to 39 °C

Question: For O=C(O)CCC(=O)O, which melting point is on record?
Answer: 185 to 188 °C

Question: Which melting point does the source give for Cc1cccnc1 here?
Answer: -18.1 to -18 °C

Question: Which melting point does the source give for CN=C=S here?
Answer: 32 to 36 °C

Question: Which melting point does the source give for O=C(O)CCCCCCCBr here?
Answer: 38.5 to 39 °C

Question: For c1ccc(-c2ccncc2)nc1, which melting point is on record?
Answer: 61 to 61.5 °C

Question: With COCOC as the compound, how does the melting point read?
Answer: -105 °C

Question: For CC(C)CCC(=O)O, which melting point is on record?
Answer: -35 to -33 °C

Question: For Nc1ccc(Br)cc1[N+](=O)[O-], which melting point is on record?
Answer: 112 °C

Question: For CC(=O)Nc1cccc(C)c1, which melting point is on record?
Answer: 65 to 65.5 °C

Question: For COc1cccc(Cl)c1Cl, which melting point is on record?
Answer: 31 to 32 °C

Question: For CC1CCC(=O)CC1, which melting point is on record?
Answer: -41 to -40.6 °C

Question: For C=Cc1ccccc1Cl, which melting point is on record?
Answer: -63.1 to -63 °C

Question: Which melting point does the source give for O=C(O)c1cccc(Cl)c1 here?
Answer: 156 to 158 °C

Question: For C1CNCCN1, which melting point is on record?
Answer: 106 to 110 °C

Question: Which melting point does the source give for CCCSSCCC here?
Answer: -86 to -85.6 °C

Question: With c1ccc(-c2ccc3ccccc3n2)cc1 as the compound, how does the melting point read?
Answer: 83 to 86 °C

Question: Which melting point does the source give for CN(C)c1ccncc1 here?
Answer: 111 to 112 °C

Question: Which melting point does the source give for CC(=O)N(O)CCCCCNC(=O)CCC(=O)N(O)CCCCCNC(=O)CCC(=O)N(O)CCCCCN here?
Answer: 139 to 140 °C

Question: For Ic1ccc(-c2ccccc2)cc1, which melting point is on record?
Answer: 112 to 114 °C

Question: With O=[N+]([O-])c1c(Cl)cc(Cl)cc1Cl as the compound, how does the melting point read?
Answer: 71 to 72 °C

Question: With NC(=O)NO as the compound, how does the melting point read?
Answer: 141 to 144 °C

Question: For Cc1cc(Cl)nc2ccccc12, which melting point is on record?
Answer: 55 to 59 °C

Question: With COc1cccc([N+](=O)[O-])c1 as the compound, how does the melting point read?
Answer: 38 to 38.5 °C

Question: Which melting point does the source give for CC(N)(CO)CO here?
Answer: 110 to 111 °C

Question: Which melting point does the source give for Nc1ccc(N)c2c1C(=O)c1ccccc1C2=O here?
Answer: 263 to 268 °C

Question: With O=C(O)CCCc1c[nH]c2ccccc12 as the compound, how does the melting point read?
Answer: 123 to 124 °C

Question: For OC1CCc2ccccc21 (centres undefined), which melting point is on record?
Answer: 52 to 54.8 °C

Question: For c1ccc(-c2ccccc2)cc1, which melting point is on record?
Answer: 69 to 71 °C

Question: For CCCC(C)=C(C)C, which melting point is on record?
Answer: -115 °C

Question: For CCCCCCCCCCCCCCCCCCS, which melting point is on record?
Answer: 30 to 32 °C

Question: For CCCCCCCCCCCCCC(=O)CCCCCCCCCCCCC, which melting point is on record?
Answer: 77.5 to 78 °C

Question: Which melting point does the source give for COc1cc(O)ccc1O here?
Answer: 89 to 90 °C

Question: With CN1C2CCC1CC(=O)C2 as the compound, how does the melting point read?
Answer: 42 to 43 °C

Question: With CCOc1ccc(CC(=O)O)cc1 as the compound, how does the melting point read?
Answer: 88.5 to 89 °C

Question: With CC#CC(=O)O as the compound, how does the melting point read?
Answer: 77 to 78 °C

Question: With O=C(O)Cc1cccc(C(F)(F)F)c1 as the compound, how does the melting point read?
Answer: 77 to 78 °C

Question: With CCCCCCCCCCCCCCCCCCCCCC as the compound, how does the melting point read?
Answer: 42 to 45 °C

Question: With c1cncnc1 as the compound, how does the melting point read?
Answer: 21 to 22 °C

Question: Which melting point does the source give for O=C1OC(c2ccc(O)cc2)(c2ccc(O)cc2)c2ccccc21 here?
Answer: 260 to 262 °C

Question: With Cc1cccc(C(N)=O)c1 as the compound, how does the melting point read?
Answer: 95 to 96 °C

Question: For C/C=C/C=O, which melting point is on record?
Answer: -76.5 to -76 °C

Question: Which melting point does the source give for O=C(O)c1ccc(Cl)c(Cl)c1 here?
Answer: 207 to 208 °C

Question: Which melting point does the source give for O=C(O)CCCCCCCCC(=O)O here?
Answer: 131 to 134 °C

Question: Which melting point does the source give for Cc1ccccc1CBr here?
Answer: 19 to 21 °C

Question: For CN1C(=O)C(=O)c2ccccc21, which melting point is on record?
Answer: 131 to 132 °C

Question: Which melting point does the source give for Nc1ncccn1 here?
Answer: 125 to 128 °C

Question: Which melting point does the source give for N#Cc1ccccn1 here?
Answer: 27 to 29 °C

Question: For OCCCCCCCO, which melting point is on record?
Answer: 18 to 22.5 °C

Question: With O=S(=O)(c1ccccc1)c1ccc(Cl)cc1 as the compound, how does the melting point read?
Answer: 92 to 94 °C

Question: With CC(C)(C)OC(=O)NCC(=O)O as the compound, how does the melting point read?
Answer: 87.5 to 89 °C

Question: With O=C1c2ccccc2Cc2ccccc21 as the compound, how does the melting point read?
Answer: 155 to 157 °C

Question: With c1ccc(Cc2ccncc2)cc1 as the compound, how does the melting point read?
Answer: 10 to 12.4 °C

Question: For C=C(C)c1ccc(C(=C)C)cc1, which melting point is on record?
Answer: 63.5 to 66 °C

Question: With CC(C)(C)N=C=S as the compound, how does the melting point read?
Answer: 10 to 10.5 °C

Question: For O=C(O)c1ccc(O)cc1, which melting point is on record?
Answer: 214 to 217 °C

Question: With Fc1ccc(-c2ccccc2)cc1 as the compound, how does the melting point read?
Answer: 74 to 74.2 °C

Question: For CC1(C)NC(=O)NC1=O, which melting point is on record?
Answer: 176 to 178 °C

Question: With CC(C)C(Br)C(=O)O (centres undefined) as the compound, how does the melting point read?
Answer: 39 to 44 °C

Question: For ClC(Cl)C(Cl)(Cl)Cl, which melting point is on record?
Answer: -29 to -28.8 °C

Question: Which melting point does the source give for CCCCCCCCCCCCCC(=O)OCC here?
Answer: 12 to 12.3 °C

Question: Which melting point does the source give for O=C(/C=C1\Cc2ccccc21)c1ccccc1 here?
Answer: 50 to 55 °C
